In US20170095440A1, “METHOD OF TREATING CANINE PANCREATITIS” (CK9, LLC, priority 2014, published 2017):
“Also recorded” adds a separate entry of the source.

What was measured:
Type in all cases: in vivo, dog
[1] = test system: dogs with suspected chronic pancreatitis; assay: Serum canine pancreas-specific lipase (cPL/cPLI, Spec cPL) before and after treatment, clinical trial; details: for Change in serum cPL/cPLI, pre- vs post-treatment (Wilcoxon matched-pair): methanesulfonate
Description: (§1) Dogs were identified by screening current submissions to the Gastrointestinal Laboratory at Texas A&M indicative of pancreatitis (canine pancreas-specific lipase≧400 μg/L) using an immunoassay for measurement of canine pancreas-specific lipase in canine serum known as the spec CPL® Test (IDEXX, Laboratories). A number of potential study participants were directly referred to the investigator by veterinarians, based on positive pet-side SNAP cPL® Test (IDEXX Laboratories, Westbrook, Me., USA) results and concomitant clinical signs. After ascertaining individual suitability of a patient with the referring veterinarian, serum canine pancreas-specific lipase concentration, serum biochemistry profile, and complete blood count were evaluated or re-evaluated 12±4 days after collection of the initial sample submission to the Gastrointestinal Laboratory. Based on the assumption that consecutive canine pancreas-specific lipase elevations indicate chronic pancreatitis, enrollment was offered for patients with canine pancreas-specific lipase concentrations≧400 μg/L, serum triglyceride concentrations below 500 mg/dL, and no indication of hepatic, renal, or other organ disease. […] Owner consent was required prior to phlebotomy and for enrollment into the trial.
[…] […] Individual patients were medicated for between 21 to 31 days.
Blood samples were collected before beginning the treatment and after completion of the treatment period. Complete blood count (red blood cell count, hematocrit, mean corpuscular volume, mean corpuscular hemoglobin, mean corpuscular hemoglobin concentration, differential and absolute white blood cell count, red blood cell count, hemoglobin, platelet estimate, red blood cell morphology, white blood cell morphology, and hemoparasites) was evaluated at the Texas Veterinary Medical Diagnostic Laboratory (TVMDL). A serum chemistry profile with electrolytes (glucose, blood urea nitrogen, creatinine, calcium, phosphorus, albumin, total protein, total bilirubin, alkaline phosphatase, alanine amino transferase, aspartate amino transferase, γ-glutamyl transferase, cholesterol, triglycerides, globuline, sodium, potassium, and chloride) was performed on a SIRRUS analyzer (Stanbio, Boerne, Tex., USA). Serum concentrations of cPL (RI: 0-200 μg/L; Spec cPL® IDEXX Laboratories, Westbrook, Me., USA), cTLI (RI: 5.7-45.2 μg/L; Canine TLI DOUBLE ANTIBODY®, Siemens Healthcare Diagnostics, Los Angeles, Calif., USA), cobalamin (RI: 251-908 ng/L), and folate (RI: 7.7-24.4 μg/L; Immulite 2000®, Siemens Healthcare Diagnostics Inc., Deerfield, Ill., USA), canine specific C-reactive protein (RI: 0-7.6 mg/L, Tridelta Development Limited, Maynooth, CO. Kildare, Ireland), S100A12 (RI: 56-331 μg/L, Gastrointestinal Laboratory in-house radioimmunoassay), and TGF-β1 (RI: 38-72 ng/mL; Quantikine® ELISA, R&D Systems, Minneapolis, […]., USA) were performed at the Gastrointestinal Lab at Texas A&M University.
Additionally, samples that exceeded the working range of the Spec cPL assay were diluted and re-analyzed.
Pre-treatment and post-treatment results for all diagnostic tests were statistically analyzed using Prism 6 (GraphPad Software, La Jolla, Calif., USA). The D'Agostino-Pearson omnibus test was used to evaluate all datasets for Gaussian distribution. Groups were compared using a paired t-test for normally-distributed data sets and a Wilcoxon matched-pairs test when Gaussian distribution could not be assumed. Mean values and standard deviation are reported for data sets with Gaussian distribution. Median and minimum/maximum values are reported for data sets where Gaussian distribution could not be assumed. The significance threshold was set at p=0.05.

[2] = test system: dogs with suspected chronic pancreatitis; assay: Serum S100A12 before and after treatment, clinical trial; details: for Change in serum S100A12, pre- vs post-treatment: methanesulfonate
Description: Treatment effects on overall health status, quality of life, and clinical signs were also evaluated with serum biochemistry profiles, complete blood counts, and owner questionnaires.
as §1
Twelve enrolled dogs received camostat capsules at a dosage of 4 mg/kg q 8 hrs, for a total dose of 12 mg/kg q 24 hrs. […] Individual patients were medicated for between 21 to 31 days.
Blood samples were collected before beginning the treatment and after completion of the treatment period. Complete blood count (red blood cell count, hematocrit, mean corpuscular volume, mean corpuscular hemoglobin, mean corpuscular hemoglobin concentration, differential and absolute white blood cell count, red blood cell count, hemoglobin, platelet estimate, red blood cell morphology, white blood cell morphology, and hemoparasites) was evaluated at the Texas Veterinary Medical Diagnostic Laboratory (TVMDL). A serum chemistry profile with electrolytes (glucose, blood urea nitrogen, creatinine, calcium, phosphorus, albumin, total protein, total bilirubin, alkaline phosphatase, alanine amino transferase, aspartate amino transferase, γ-glutamyl transferase, cholesterol, triglycerides, globuline, sodium, potassium, and chloride) was performed on a SIRRUS analyzer (Stanbio, Boerne, Tex., USA). […]
Pre-treatment and post-treatment results for all diagnostic tests were statistically analyzed using Prism 6 (GraphPad Software, La Jolla, Calif., USA). […]

[3] = test system: Beagle dogs; assay: Rising-dose tolerance study, oral capsule
Description: The following parameters and end points were evaluated in the rising-dose phase of this study: clinical signs, body weights, body weight changes, food consumption, electrocardiography, clinical pathology parameters (hematology, clinical chemistry, and urinalysis), and gross necropsy findings.
3 male and 3 female Beagle dogs were received from Marshall BioResources, North Rose, N.Y. The animals were examined and weighed on the day following receipt. The rising-dose phase animals were 6 months old and weighed 7.5 kg and 8.3 kg at initiation of dosing. The multiple-dose phase animals were 7 months old and weighed 7.4 kg and 7.6 kg at initiation of dosing.
For the rising-dose phase, the test article was administered to the appropriate animals by oral capsule. At least a 3-day washout period was maintained before proceeding to the next dose level; therefore, dosing occurred on Days 1, 5, 9, 15, and 19. The dose amount for each animal was based on the most recent body weight measurement. The first day of dosing was designated as Study Day 1.
The animals were removed from the cage and a detailed clinical observation was performed daily, beginning during Week −1, 1 to 3 hours postdose on days of dosing. Each animal was weighed on the day of randomization and Days 1, 5, 9, 15, 19, and 22. Food consumption was quantitatively measured for each animal daily, starting Week −1, throughout the dosing period, except for on the day of scheduled euthanasia. Electrocardiogram (ECG) measurements were obtained from all animals using leads I, II, III, aVR, aVL, and aVF and a chart speed of 50 mm/second. The ECG measurements were obtained once pretreatment and at approximately 3 hours postdose on Days 1, 5, 9, 15, and 19. Only lead II was evaluated by a board-certified veterinary cardiologist.
Blood was collected by venipuncture of the jugular vein. Urine was collected overnight by cage pan drainage. After collection, samples were transferred to the clinical pathology laboratory for processing. The animals were fasted overnight prior to scheduled clinical pathology sample collections, but had access to water ad libitum. Samples were collected according to Table 5.
Rising-dose phase animals surviving until scheduled euthanasia were weighed, samples for evaluation of clinical pathology parameters were collected as specified above, and the animals were euthanized by sodium pentobarbital injection, followed by exsanguination. Animals were fasted overnight before their scheduled necropsy.
Rising-dose phase animals were subjected to a complete necropsy examination, which included evaluation of the carcass and musculoskeletal system; all external surfaces and orifices; cranial cavity and external surfaces of the brain; and thoracic, abdominal, and pelvic cavities with their associated organs and tissues. Necropsy examinations were conducted under the supervision of a board-certified veterinary pathologist.

[4] = following each dose, 10-250 mg/kg, methanesulfonate

SMILES: CN(C)C(=O)COC(=O)Cc1ccc(OC(=O)c2ccc(NC(=N)N)cc2)cc1 [Camostat Mesilate, N,N-dimethylcarbamoylmethyl-4-(4-guanidinobenzoyloxy)phenylacetate methanesulfonate]
- Serum cPL/cPLI concentration post-treatment (median) ([1]; 4 mg/kg q 8 hrs oral capsules, 21-31 days, n=12, pre-treatment median 501, post range 125-2,836, p=0.9697): 453 µg/L
- Change in serum cPL/cPLI, pre- vs post-treatment (Wilcoxon matched-pair) ([1]; 4 mg/kg q 8 hrs, n=12): no significant difference; also recorded: did not change significantly
- Change in serum cPL/cPLI, pre- vs post-treatment (Wilcoxon matched-pair) ([1]; 8 mg/kg q 8 hrs (24 mg/kg q d), n=17): significant difference; also recorded: statistically significant change; also recorded: statistically significant decrease
- Serum cPL/cPLI concentration post-treatment (median) ([1]; 8 mg/kg q 8 hrs oral capsules, 21-31 days, n=17, pre-treatment median 882, post range 193-2,580, p=0.0232): 633 µg/L
- Serum cPL/cPLI concentration post-treatment (median) ([1]; all treated dogs combined, n=29, pre-treatment median 690, post range 125-2,836, p=0.0903 or 0.0562): 514 µg/L
- Change in serum cPL/cPLI, pre- vs post-treatment (Wilcoxon matched-pair) ([1]; all treated dogs combined, n=29, trend towards a decrease): no statistically significant difference
- Change in serum S100A12, pre- vs post-treatment ([2]; 4 mg/kg q 8 hrs, n=11): decreased significantly
- Serum S100A12 concentration post-treatment (median) ([2]; 4 mg/kg q 8 hrs, n=11, pre-treatment median 160, post range 43-449, p=0.0010): 88 µg/L
- Change in serum S100A12, pre- vs post-treatment ([2]; all treated dogs combined, n=28): no significant difference; also recorded: did not change significantly; also recorded: did not lead to any significant changes
- Serum S100A12 concentration post-treatment (median) ([2]; all treated dogs combined, n=28, pre-treatment median 154, post range 43-746, p=0.1438): 133 µg/L
- Clinical observations ([3]; 10 mg/kg single oral dose): soft feces were noted in the female the day after dosing
- Clinical observations ([3]; 30 mg/kg single oral dose): no clinical observations noted
- Clinical observations ([3]; 100 mg/kg single oral dose): clear ocular discharge was observed in the female
- Clinical observations ([3]; 200 mg/kg single oral dose, methanesulfonate): slight salivation and soft feces/feces with mucoid material were observed in the male and female
- Clinical observations ([3]; 250 mg/kg single oral dose, methanesulfonate): severe salivation was observed following dosing in the male and female; also recorded: salivation and soft feces/feces with mucoid material
- Gross necropsy findings ([3]; Day 22): no gross necropsy findings
- Body weight ([3]; between doses, 10-250 mg/kg): no notable changes
- Food consumption ([3]; between doses, 10-250 mg/kg): no notable changes
- Clinical chemistry, potential test article-related changes ([3]; female, following the 200 and 250 mg/kg doses): increased creatine kinase
- Hematology parameters [3, 4]: no toxicologically meaningful changes; also recorded: no notable changes
- Urinalysis parameters [3, 4]: no toxicologically meaningful changes; also recorded: no notable changes
- Clinical chemistry, potential test article-related changes ([3]; male, following the 250 mg/kg dose): increased creatinine, total bilirubin, and urea nitrogen
- Survival ([3]; single oral doses 10, 30, 100, 200, 250 mg/kg, 1 male and 1 female, methanesulfonate): No rising-dose phase animals died; also recorded: All animals survived to scheduled euthanasia
